Activity calls are given as the source filed them. For most assays here, no stated cut-off is given here; in the data, actives have a measured EC50 and inactives only a lower limit.
Experiments:
[1] = system: Streptococcus sp. 'group A'; test: growth inhibition of control SK(-) GAS strain, dose response, counter-screen for streptokinase expression inhibitor project, luminescence, kanamycin, BacTiterGlo, confirmation (AID 1900); assay type: functional, organism-based
Streptococcus = test: Group A Streptococcus viability loss, dose response, counter-screen for streptokinase expression inhibitor project, luminescence, BacTiterGlo (AID 1915); assay type: functional, organism-based;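 further: potency for reduction of bacterial viability or growth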
Streptokinase A = target: T1, Streptokinase A (Streptococcus pyogenes serotype M1, UniProt P10520); test: S. pyogenes streptokinase expression inhibitors, potency, dose response, plasminogen activation absorbance, OD405 (AID 1914); assay type: functional, Streptococcus pyogenes M1 GAS;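 further: secreted streptokinase activity via plasminogen activation per viability signal from cell pellet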
T1 sequence (P10520 whole entry): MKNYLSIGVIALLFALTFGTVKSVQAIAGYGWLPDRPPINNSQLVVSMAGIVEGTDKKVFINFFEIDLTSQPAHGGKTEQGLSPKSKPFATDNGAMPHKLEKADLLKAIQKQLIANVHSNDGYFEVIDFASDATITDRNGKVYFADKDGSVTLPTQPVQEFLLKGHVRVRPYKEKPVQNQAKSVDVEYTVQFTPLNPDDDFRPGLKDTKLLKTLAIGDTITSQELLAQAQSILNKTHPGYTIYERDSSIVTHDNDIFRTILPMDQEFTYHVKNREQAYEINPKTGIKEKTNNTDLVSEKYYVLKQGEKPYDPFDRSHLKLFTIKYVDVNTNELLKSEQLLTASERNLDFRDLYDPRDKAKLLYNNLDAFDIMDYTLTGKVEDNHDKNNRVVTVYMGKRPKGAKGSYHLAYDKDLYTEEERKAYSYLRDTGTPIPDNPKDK

[2] = target: T2, Carboxy-terminal domain RNA polymerase II polypeptide A small phosphatase 1 (Homo sapiens, UniProt Q9GZU7); test: inhibitors of CTDSP1, concentration-response testing, biochemical assay, absorbance-based, actives from ultra-high-throughput screening (AID 540297); assay type: functional
T2 sequence (Q9GZU7 whole entry): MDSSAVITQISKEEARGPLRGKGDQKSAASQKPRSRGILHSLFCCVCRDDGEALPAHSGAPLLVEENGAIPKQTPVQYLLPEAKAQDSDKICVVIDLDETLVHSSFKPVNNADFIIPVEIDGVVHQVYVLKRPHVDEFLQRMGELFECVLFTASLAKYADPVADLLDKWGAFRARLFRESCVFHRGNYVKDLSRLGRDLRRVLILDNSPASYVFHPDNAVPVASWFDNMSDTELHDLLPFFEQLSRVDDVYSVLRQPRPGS

[3] = target: T3, High affinity choline transporter 1 (Homo sapiens, UniProt Q9GZV3); test: CHT inhibitors, dose response, cell-based, 5-point CRC, membrane potential dye (AID 504840); assay type: functional
T3 sequence (Q9GZV3 whole entry): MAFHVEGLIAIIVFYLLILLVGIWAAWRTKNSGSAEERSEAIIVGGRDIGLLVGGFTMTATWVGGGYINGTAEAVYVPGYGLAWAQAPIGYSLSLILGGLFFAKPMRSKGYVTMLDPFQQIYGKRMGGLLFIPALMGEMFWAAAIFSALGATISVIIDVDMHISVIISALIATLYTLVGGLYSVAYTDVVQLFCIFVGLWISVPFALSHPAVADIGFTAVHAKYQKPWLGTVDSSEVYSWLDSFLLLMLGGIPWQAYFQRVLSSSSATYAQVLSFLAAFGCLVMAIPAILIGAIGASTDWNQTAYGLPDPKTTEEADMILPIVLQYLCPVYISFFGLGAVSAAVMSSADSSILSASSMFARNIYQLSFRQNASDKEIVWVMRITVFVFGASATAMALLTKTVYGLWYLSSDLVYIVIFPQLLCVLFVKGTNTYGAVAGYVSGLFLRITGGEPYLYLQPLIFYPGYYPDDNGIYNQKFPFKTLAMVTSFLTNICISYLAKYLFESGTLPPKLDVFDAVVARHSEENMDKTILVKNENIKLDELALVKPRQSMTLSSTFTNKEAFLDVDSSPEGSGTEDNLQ

Protein skinhead-1 = target: T4, Protein skinhead-1 (Caenorhabditis elegans, UniProt P34707); assay type: functional
T4 sequence (P34707 whole entry): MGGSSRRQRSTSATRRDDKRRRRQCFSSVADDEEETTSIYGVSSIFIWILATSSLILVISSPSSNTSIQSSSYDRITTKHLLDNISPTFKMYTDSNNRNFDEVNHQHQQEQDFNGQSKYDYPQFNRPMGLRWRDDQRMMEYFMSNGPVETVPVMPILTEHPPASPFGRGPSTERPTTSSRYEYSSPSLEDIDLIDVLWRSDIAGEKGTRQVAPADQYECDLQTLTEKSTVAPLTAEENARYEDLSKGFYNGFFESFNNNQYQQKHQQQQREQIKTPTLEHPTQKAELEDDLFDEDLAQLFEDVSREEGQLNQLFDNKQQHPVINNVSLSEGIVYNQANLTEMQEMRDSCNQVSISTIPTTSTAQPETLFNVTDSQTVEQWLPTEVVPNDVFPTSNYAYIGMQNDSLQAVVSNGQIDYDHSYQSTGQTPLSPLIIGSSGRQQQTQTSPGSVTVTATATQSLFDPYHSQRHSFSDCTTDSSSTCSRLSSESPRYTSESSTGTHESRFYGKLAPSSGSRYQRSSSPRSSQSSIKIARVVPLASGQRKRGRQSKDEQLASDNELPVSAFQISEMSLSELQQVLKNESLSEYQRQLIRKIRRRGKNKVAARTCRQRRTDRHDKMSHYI

[4] = Luminescence Cell-Based Dose Confirmation HTS to Identify Inhibitors of Platelet Dense Granule Release. [Related pubchem assays: 1663 (Primary HTS), 1678 (Summary of Project)]; assay type: functional
[5] = target: Luciferin 4-monooxygenase (Photinus pyralis, UniProt P08659); test: firefly luciferase enzyme inhibitors, dose response, biochemical, luminescence (AID 1891)
[6] = inhibitors of firefly luciferase expression or activity, dose response, H4 neuroglioma cells, luminescence (AID 1990); assay type: functional, cell-based
[7] = Luminescence Cell-Based Dose Response HTS to Identify Inhibitors of 5'UTR Stem-Loop Driven Prion Protein mRNA Translation in H4 Neuroglioblastoma Cells. [Related pubchem assays: 1827 (Project Summary), 1813 (Primary HTS)]; assay type: functional
[8] = target: T5, Heat shock factor protein 1 (Mus musculus, UniProt P38532); test: inhibition of MG132-induced HSE-luciferase signal, confirmation, cell-based, NIH3T3, luminescence, dose retest (AID 2382); assay type: functional;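 further: NIH3T3 fibroblasts with HSF1-driven luciferase reporter stressed by proteasome inhibitor MG132; luminescence from HSF1-driven luciferase expression after 8 hours of MG132 stress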
T5 sequence (P38532 whole entry): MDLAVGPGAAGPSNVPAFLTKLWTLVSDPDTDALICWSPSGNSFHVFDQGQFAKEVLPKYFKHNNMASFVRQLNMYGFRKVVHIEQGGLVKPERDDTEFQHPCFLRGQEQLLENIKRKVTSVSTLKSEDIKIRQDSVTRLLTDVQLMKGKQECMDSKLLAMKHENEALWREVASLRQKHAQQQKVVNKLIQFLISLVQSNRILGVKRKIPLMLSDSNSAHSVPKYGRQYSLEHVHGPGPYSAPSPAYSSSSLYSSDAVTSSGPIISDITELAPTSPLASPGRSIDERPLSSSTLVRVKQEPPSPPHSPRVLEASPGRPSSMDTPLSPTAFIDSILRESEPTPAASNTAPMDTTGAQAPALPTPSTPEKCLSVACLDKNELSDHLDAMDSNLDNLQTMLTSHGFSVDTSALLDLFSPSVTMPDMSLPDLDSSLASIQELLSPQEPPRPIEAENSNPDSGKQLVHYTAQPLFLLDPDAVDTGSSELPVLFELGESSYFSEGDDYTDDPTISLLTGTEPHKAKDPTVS

[9] = inhibitors of SNCA 5'UTR-driven reporter translation, confirmation, H4 neuroglioma cells, luminescence (AID 1988); assay type: functional, cell-based
[10] = Luminescence Cell-Based Dose Retest to Confirm Inhibitors of Cancer Stem Cells. [Related pubchem assays (depositor defined):AID2717, AID2721]; assay type: functional; details: Homo sapiens
INS1 = test: beta cell apoptosis inhibitors, cytokine rescue, dose response, luminescence, retest (AID 449756); assay type: functional, cell-based; details: Rattus norvegicus;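 further: cell death triggered by IL-1 beta plus TNF-alpha plus IFN-gamma mixture; protective hits raise ATP signal compared with cytokine alone wells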
[11] = growth suppression of beta-catenin-knockout colon cells, dose response, cell-based, HCT116, human colon tumor (AID 1045); assay type: functional;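 further: HCT116 colon tumor cells with beta catenin knocked out; cells exposed to compound for 60 hours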
[12] = growth suppression of PTEN-null colon cells, dose response, cell-based, HCT116 PTEN knockout (AID 1047); assay type: functional;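 further: HCT116 colon tumor cells with PTEN knocked out; cells exposed to compound for 60 hours before readout; potency for loss of cell viability measured by luminescence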

Chain of Luciferin 4-monooxygenase (P08659 whole entry): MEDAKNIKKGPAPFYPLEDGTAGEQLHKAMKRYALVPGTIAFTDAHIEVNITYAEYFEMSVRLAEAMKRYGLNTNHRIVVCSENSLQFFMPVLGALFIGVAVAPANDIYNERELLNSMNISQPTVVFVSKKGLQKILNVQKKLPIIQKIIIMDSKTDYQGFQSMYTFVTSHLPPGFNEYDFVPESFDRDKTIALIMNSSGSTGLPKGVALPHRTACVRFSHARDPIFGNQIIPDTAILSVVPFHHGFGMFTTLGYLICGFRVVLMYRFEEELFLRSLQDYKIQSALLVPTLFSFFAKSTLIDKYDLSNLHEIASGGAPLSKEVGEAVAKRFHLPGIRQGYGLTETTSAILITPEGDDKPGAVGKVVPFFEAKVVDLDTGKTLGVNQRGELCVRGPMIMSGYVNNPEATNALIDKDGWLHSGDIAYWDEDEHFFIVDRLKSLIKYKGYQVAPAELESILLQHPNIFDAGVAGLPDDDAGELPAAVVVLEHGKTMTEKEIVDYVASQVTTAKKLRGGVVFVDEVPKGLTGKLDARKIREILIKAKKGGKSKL

## COc1ccc(Cn2c(C3CCCCC3)nc3c(c(=O)c4ccccc4n3C)c2=O)cc1
[1]
  EC50: 6.03 µM (active)
Streptococcus
  EC50: 6.96 µM (active)
Streptokinase A
  EC50: > 150 µM (not active)
[2]
  IC50: 5.55 µM (active)

## CC1CCN(CC(=O)Nc2cccc(C(=O)Nc3cccc(C(F)(F)F)c3)c2)CC1
[3]
  IC50: 12.3 µM (active)
Protein skinhead-1
  IC50: 43.2 µM (active)

## CC1CCN(CC(O)COc2ccc(OCC(O)CN3CCC(C)CC3)cc2)CC1 (stereo not given)
[3]
  IC50: 12.6 µM (active)

## COc1cccc(NC(=O)c2cnn(-c3ccccc3)c2C)c1
[4]
  EC50: 20.2 µM (active)
[5]
  EC50: 8.62 µM (active)

## CCCc1cc2c(=O)c(-c3cscn3)c(C(=O)OCC)oc2cc1O
[3]
  IC50: 13.8 µM (active)

## Cc1cccc(N2CC(C)Cn3c2nc2c3c(=O)n(CC(=O)OCc3ccccc3)c(=O)n2C)c1 (stereo not given)
[4]
  EC50: > 112 µM (not active)
[5]
  EC50: 27.8 µM (active)

## Cc1ccc(C)c(OCC(=O)Nc2ccc(S(=O)(=O)Nc3ccccn3)cc2)c1C
[3]
  IC50: 7.2 µM (active)

## O=C1c2ccccc2C(O)N1CCN1CCOCC1 (stereo not given)
[4]
  EC50: > 112 µM (not active)
[5]
  EC50: > 112 µM (not active)

## CCCn1nc(NS(=O)(=O)c2ccc(F)cc2)c2cc3ccccc3nc21
[4]
  EC50: > 112 µM (not active)
[5]
  EC50: > 112 µM (not active)

## Fc1ccc(-c2nnc(NC3=NCCCCC3)o2)cc1
[6]
  EC50: 2.66 µM (active)
[4]
  EC50: 2.88 µM (active)
[7]
  EC50: 0.751 µM (active)
[8]
  EC50: 16 µM (active)
[9]
  EC50: 1.4 µM (active)
[5]
  EC50: 13.9 µM (active)

## CCCCC1CCC(C(=O)N(CC(C)C)c2c(N)n(Cc3ccccc3)c(=O)[nH]c2=O)CC1 (stereo not given)
[10]
  AC50: 2.96 µM (active)
INS1
  AC50: 5.82 µM (active)

## Cc1sc(NC(=O)c2cc(-c3ccc(Cl)cc3)nc3ccccc23)c(C(N)=O)c1C
[11]
  EC50: 15.3 µM (active)
[12]
  EC50: 17.3 µM (active)

## O=C(NCCC1=CCCCC1)NC1CCCCC1
[4]
  EC50: > 112 µM (not active)
[5]
  EC50: > 112 µM (not active)
Protein skinhead-1
  IC50: > 100 µM (inactive)

From ChEMBL document CHEMBL1201862, “PubChem BioAssay data set” (2004)
